Results from patent US9925222B2, “Gut barrier dysfunction treatment and prevention” (ALBERT EINSTEIN COLLEGE OF MEDICINE OF YESHIVA UNIVERSITY, priority 2012, dated 2018).

Legend:
[1] = target: T1, human PXR (hPXR) (Homo sapiens, UniProt O75469); assay: In vitro transcription assay, PXR reporter gene (MRP2 luciferase) with hPXR expression plasmid in 293T cells
T1 sequence (O75469 1-434): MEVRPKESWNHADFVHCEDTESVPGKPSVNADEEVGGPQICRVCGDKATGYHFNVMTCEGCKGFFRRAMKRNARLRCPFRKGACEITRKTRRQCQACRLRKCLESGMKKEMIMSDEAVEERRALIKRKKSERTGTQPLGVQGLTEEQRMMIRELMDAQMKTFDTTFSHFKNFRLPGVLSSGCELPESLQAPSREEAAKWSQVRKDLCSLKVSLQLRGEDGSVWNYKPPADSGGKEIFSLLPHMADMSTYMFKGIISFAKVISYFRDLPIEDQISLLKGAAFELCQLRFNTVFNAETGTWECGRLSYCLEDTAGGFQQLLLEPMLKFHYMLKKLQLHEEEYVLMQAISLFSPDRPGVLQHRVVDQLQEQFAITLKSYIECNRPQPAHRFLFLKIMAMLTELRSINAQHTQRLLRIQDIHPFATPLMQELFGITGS
Description: These assays were performed in 293T cells as previously published (33). In brief, transient transfection by lipofectamine (Invitrogen) were carried out in 293T cells with plasmids expressing human PXR (hPXR), mouse PXR (mPXR), GAL4-FXR, GAL4-LXR, GAL4-PPARγ and mouse CAR (mCAR) with respective reporter plasmids (Tk-MRP2-luciferase, Tk-MH100-luciferase, CYP2B10-luciferase) and Renilla. For TLR4 promoter luciferase transcription assay, TLR4 promoter reporter construct (a gift from Dr. Michael Rehli of University of Regensburg, Germany) was transfected along with human PXR, mouse PU.1 expression plasmids and Renilla. […] The cells were harvested in passive lysis buffer (Promega) and luciferase activity was detected using the dualluciferase reporter assay system from Promega in 20 μl of cell lysate using the Turner Biosystems 20/20 n Luminometer. Assays were performed at least two independent times each in triplicates.

[2] = system: gut permeability to FITC-dextran; assay: In vivo FITC-dextran gut permeability assay in germ free mice after oral IPA; settings: germ free (SWGF) mice; oral IPA 20 mg/kg, four consecutive days
Description: Age and sex-matched mice were orally administered with 0.6 mg/g body weight of an 80 mg/ml solution of FITC-dextran (FD4, Sigma). 5 h later, retro-orbital blood was collected from each mouse. Serum was prepared by allowing the blood to clot by leaving it undisturbed overnight at 4° C. and then subsequently centrifuged at 3000 rpm for 20 minutes. Dilutions of FITC-dextran in PBS were used as a standard curve. Absorption of 50 μl serum was measured at microplate reader with excitation and emission filters set at 490 and 530 nm, respectively (38).

[3] = target: T2, mouse PXR (mPXR) (Mus musculus, UniProt O54915); assay: In vitro transcription assay, PXR reporter gene (MRP2 luciferase) with mPXR expression plasmid in 293T cells; type: cell-based
T2 construct: expressed in transfected cells; host or cells: 293T cells
T2 sequence (O54915 1-431): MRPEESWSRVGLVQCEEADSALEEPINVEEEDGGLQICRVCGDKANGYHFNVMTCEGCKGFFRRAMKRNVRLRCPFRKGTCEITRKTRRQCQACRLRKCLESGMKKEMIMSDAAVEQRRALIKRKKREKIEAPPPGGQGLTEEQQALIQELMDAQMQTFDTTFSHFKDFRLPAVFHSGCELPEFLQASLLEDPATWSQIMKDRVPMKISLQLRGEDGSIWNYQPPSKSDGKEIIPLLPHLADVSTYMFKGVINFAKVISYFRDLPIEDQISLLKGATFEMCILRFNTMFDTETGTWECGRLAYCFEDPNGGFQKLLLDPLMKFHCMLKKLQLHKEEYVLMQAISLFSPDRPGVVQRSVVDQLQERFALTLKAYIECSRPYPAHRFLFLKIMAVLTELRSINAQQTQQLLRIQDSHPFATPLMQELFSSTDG
Description: These assays were performed in 293T cells as previously published (33). In brief, transient transfection by lipofectamine (Invitrogen) were carried out in 293T cells with plasmids expressing human PXR (hPXR), mouse PXR (mPXR), GAL4-FXR, GAL4-LXR, GAL4-PPARγ and mouse CAR (mCAR) with respective reporter plasmids (Tk-MRP2-luciferase, Tk-MH100-luciferase, CYP2B10-luciferase) and Renilla. […] The cells were harvested in passive lysis buffer (Promega) and luciferase activity was detected using the dualluciferase reporter assay system from Promega in 20 μl of cell lysate using the Turner Biosystems 20/20 n Luminometer. Assays were performed at least two independent times each in triplicates.

[4] = target: T3, aryl hydrocarbon receptor (AhR) (Homo sapiens, UniProt P35869); assay: AhR activation
T3 sequence (P35869 11-848): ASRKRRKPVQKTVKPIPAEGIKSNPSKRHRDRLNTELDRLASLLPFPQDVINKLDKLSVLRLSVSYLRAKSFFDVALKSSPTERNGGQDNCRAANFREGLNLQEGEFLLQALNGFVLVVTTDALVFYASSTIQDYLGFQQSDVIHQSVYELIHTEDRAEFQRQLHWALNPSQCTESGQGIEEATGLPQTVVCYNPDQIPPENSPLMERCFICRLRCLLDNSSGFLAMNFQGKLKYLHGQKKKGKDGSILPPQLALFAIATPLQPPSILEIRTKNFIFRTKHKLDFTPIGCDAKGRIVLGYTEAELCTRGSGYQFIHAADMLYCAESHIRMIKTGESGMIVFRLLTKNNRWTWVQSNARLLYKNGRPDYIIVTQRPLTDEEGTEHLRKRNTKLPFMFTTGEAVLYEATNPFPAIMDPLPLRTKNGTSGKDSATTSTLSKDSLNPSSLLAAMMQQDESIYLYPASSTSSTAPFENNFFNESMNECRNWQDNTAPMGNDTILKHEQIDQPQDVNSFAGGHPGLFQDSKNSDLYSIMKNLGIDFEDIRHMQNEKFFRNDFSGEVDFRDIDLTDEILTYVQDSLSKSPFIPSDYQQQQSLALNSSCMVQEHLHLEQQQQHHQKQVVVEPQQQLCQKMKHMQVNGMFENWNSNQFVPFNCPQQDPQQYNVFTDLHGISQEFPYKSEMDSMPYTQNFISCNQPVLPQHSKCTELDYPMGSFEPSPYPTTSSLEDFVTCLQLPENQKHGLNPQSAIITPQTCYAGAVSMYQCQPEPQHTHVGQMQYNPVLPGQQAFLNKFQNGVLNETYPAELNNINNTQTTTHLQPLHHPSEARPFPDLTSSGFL

[5] = system: PXR target gene transcription (Mdr-1); assay: PXR target gene (Mdr-1) qPCR in jejunum apical enterocytes after oral IPA; type: in vivo, mice; settings: oral IPA 20 mg/kg; Mdr-1, jejunum apical enterocytes
Description: 2.0 μg of total RNA extracted from pooled apical enterocytes with TRIzolR (Invitrogen), were reverse transcribed with random hexamer primers and SuperScript™ III-RT enzyme (Invitrogen). Quantitative PCR (qPCR) reactions using TaqMan universal PCR master mix and TaqMan probes containing FAM as the 5′ reporter fluorochrome and tetramethylrhodamine (MGB) as the 3′ quencher fluorochrome, were performed in triplicate for each sample and analyzed on the ABI Prism 7900HT system. […] Controls include RT-minus RNA samples. PCR reaction conditions for all assays were set at 50° C. for 2 minutes, 95° C. for 10 minutes, followed by 40 cycles of amplification (95° C. for 15 seconds then 60° C. for 1 minute). Experiments were performed at least two independent times each in triplicates.

O=C(O)CCc1c[nH]c2ccccc12 [IPA, indole-3-propionic acid]
EC50 [1]: 120 µM | Emax, hPXR transcription assay ([1]; IPA alone, MRP2 luciferase, 293T cells): 6.38 fold over control | hPXR activation in combination with indole ([1]; fixed concentration of indole (1 mM), increasing concentrations of metabolite): significantly activates hPXR | Gut permeability to FITC-dextran [2]: decreased gut permeability to FITC-dextran | EC50 [3]: 0.55 µM | Emax, mPXR transcription assay [3]: 18.84 fold over control | Activation of AhR [4]: no activation | PXR target gene transcription in vivo [5]: induces PXR target gene transcription in vivo
